In PubChem BioAssay (NCI):
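Cells were grown in 96-well plates and exposed to each compound for 48 hours at five concentrations; endpoints were interpolated linearly between bracketing concentrations, or set to the highest concentration if not reached. The concentration for 50% growth inhibition is given as GI50. TGI: concentration producing complete growth inhibition.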

Columns and labels:
Test in all cases: NCI anticancer screen, dose series, 48 h
KM12 colon = system: KM12 colon
HCC-2998 colon = system: HCC-2998 colon
DU-145 prostate = system: DU-145 prostate
OVCAR-4 ovarian = system: OVCAR-4 ovarian
T-47D breast = system: T-47D breast
RXF 393 renal = system: RXF 393 renal
SK-MEL-5 melanoma = system: SK-MEL-5 melanoma
LOX IMVI melanoma = system: LOX IMVI melanoma
OVCAR-8 ovarian = system: OVCAR-8 ovarian
SK-OV-3 ovarian = system: SK-OV-3 ovarian
SNB-19 CNS = system: SNB-19 CNS
MDA-MB-231 breast = system: MDA-MB-231 breast
TK-10 renal = system: TK-10 renal
HOP-92 NSCLC = system: HOP-92 NSCLC
HS 578T breast = system: HS 578T breast
NCI-H23 lung = system: NCI-H23 lung
786-0 renal = system: 786-0 renal
UACC-62 melanoma = system: UACC-62 melanoma
SN12C renal = system: SN12C renal
BT-549 breast = system: BT-549 breast
COLO 205 colon = system: COLO 205 colon
M14 melanoma = system: M14 melanoma
CCRF-CEM leukemia = system: CCRF-CEM leukemia
EKVX NSCLC = system: EKVX NSCLC
HOP-62 NSCLC = system: HOP-62 NSCLC
NCI-H460 lung = system: NCI-H460 lung
SW-620 colon = system: SW-620 colon
MCF7 breast = system: MCF7 breast
SF-295 CNS = system: SF-295 CNS
HCT-116 colon = system: HCT-116 colon
PC-3 prostate = system: PC-3 prostate
MDA-MB-435 = system: MDA-MB-435
SK-MEL-2 melanoma = system: SK-MEL-2 melanoma
MALME-3M melanoma = system: MALME-3M melanoma
SNB-75 CNS = system: SNB-75 CNS
NCI/ADR-RES ovarian = system: NCI/ADR-RES ovarian
NCI-H522 lung = system: NCI-H522 lung
A549 NSCLC = system: A549 NSCLC
SR leukemia = system: SR leukemia
HCT-15 colon = system: HCT-15 colon
HL-60(TB) leukemia = system: HL-60(TB) leukemia
NCI-H226 lung = system: NCI-H226 lung
IGROV1 ovarian = system: IGROV1 ovarian
HT29 colon = system: HT29 colon
SF-268 CNS = system: SF-268 CNS
OVCAR-5 ovarian = system: OVCAR-5 ovarian
CAKI-1 renal = system: CAKI-1 renal
MOLT-4 leukemia = system: MOLT-4 leukemia
K-562 leukemia = system: K-562 leukemia
UO-31 renal = system: UO-31 renal
OVCAR-3 ovarian = system: OVCAR-3 ovarian
RPMI-8226 leukemia = system: RPMI-8226 leukemia
A498 renal = system: A498 renal
SK-MEL-28 melanoma = system: SK-MEL-28 melanoma
ACHN renal = system: ACHN renal
UACC-257 melanoma = system: UACC-257 melanoma
U251 CNS = system: U251 CNS
SF-539 CNS = system: SF-539 CNS

Question: With `CCc1nn2c(C)cc(C)nc2c1Cc1ccc(/C=C/CN2CCN(CCOCCOCCN3CCN(C/C=C/c4ccc(Cc5c(CC)nn6c(C)cc(C)nc56)cc4)CC3)CC2)cc1` as the molecule, how does the GI50 (KM12 colon) read?
Answer: 3.28 µM

Question: And the TGI (KM12 colon)?
Answer: 7.96 µM

Question: What about the GI50 (HCC-2998 colon) of the same molecule?
Answer: 1.77 µM

Question: What about the TGI (HCC-2998 colon) of the same molecule?
Answer: 3.48 µM

Question: What about the GI50 (DU-145 prostate) of the same molecule?
Answer: 2.88 µM

Question: What about the TGI (DU-145 prostate) of the same molecule?
Answer: 7.21 µM

Question: And the GI50 (OVCAR-4 ovarian)?
Answer: 1.8 µM

Question: And the TGI (OVCAR-4 ovarian)?
Answer: 3.86 µM

Question: And the GI50 (T-47D breast)?
Answer: 1.74 µM

Question: What about the TGI (T-47D breast) of the same molecule?
Answer: 3.74 µM

Question: What about the GI50 (RXF 393 renal) of the same molecule?
Answer: 1.68 µM

Question: And the TGI (RXF 393 renal)?
Answer: 3.97 µM

Question: What about the GI50 (SK-MEL-5 melanoma) of the same molecule?
Answer: 1.87 µM

Question: What about the TGI (SK-MEL-5 melanoma) of the same molecule?
Answer: 3.52 µM

Question: And the GI50 (LOX IMVI melanoma)?
Answer: 1.68 µM

Question: And the TGI (LOX IMVI melanoma)?
Answer: 3.16 µM

Question: And the GI50 (OVCAR-8 ovarian)?
Answer: 1.92 µM

Question: And the TGI (OVCAR-8 ovarian)?
Answer: 3.92 µM

Question: And the GI50 (SK-OV-3 ovarian)?
Answer: 5.75 µM

Question: And the TGI (SK-OV-3 ovarian)?
Answer: 10.5 µM

Question: What about the GI50 (SNB-19 CNS) of the same molecule?
Answer: 2.94 µM

Question: And the TGI (SNB-19 CNS)?
Answer: 7.95 µM

Question: And the GI50 (MDA-MB-231 breast)?
Answer: 1.91 µM

Question: What about the TGI (MDA-MB-231 breast) of the same molecule?
Answer: 4.13 µM

Question: What about the GI50 (TK-10 renal) of the same molecule?
Answer: 5.72 µM

Question: What about the TGI (TK-10 renal) of the same molecule?
Answer: 10.4 µM

Question: What about the GI50 (HOP-92 NSCLC) of the same molecule?
Answer: 2.37 µM

Question: And the TGI (HOP-92 NSCLC)?
Answer: 7.16 µM

Question: And the GI50 (HS 578T breast)?
Answer: 5.14 µM

Question: What about the TGI (HS 578T breast) of the same molecule?
Answer: 12.1 µM

Question: And the GI50 (NCI-H23 lung)?
Answer: 1.86 µM

Question: What about the TGI (NCI-H23 lung) of the same molecule?
Answer: 3.65 µM

Question: And the GI50 (786-0 renal)?
Answer: 1.72 µM

Question: And the TGI (786-0 renal)?
Answer: 3.28 µM

Question: And the GI50 (UACC-62 melanoma)?
Answer: 1.74 µM

Question: And the TGI (UACC-62 melanoma)?
Answer: 3.3 µM

Question: What about the GI50 (SN12C renal) of the same molecule?
Answer: 1.86 µM

Question: What about the TGI (SN12C renal) of the same molecule?
Answer: 3.99 µM

Question: And the GI50 (BT-549 breast)?
Answer: 4.98 µM

Question: What about the TGI (BT-549 breast) of the same molecule?
Answer: 9.52 µM

Question: And the GI50 (COLO 205 colon)?
Answer: 1.71 µM

Question: And the TGI (COLO 205 colon)?
Answer: 3.22 µM

Question: What about the GI50 (M14 melanoma) of the same molecule?
Answer: 1.76 µM

Question: And the TGI (M14 melanoma)?
Answer: 3.37 µM

Question: What about the GI50 (CCRF-CEM leukemia) of the same molecule?
Answer: 1.64 µM

Question: What about the TGI (CCRF-CEM leukemia) of the same molecule?
Answer: 4.18 µM

Question: What about the GI50 (EKVX NSCLC) of the same molecule?
Answer: 4.26 µM

Question: What about the TGI (EKVX NSCLC) of the same molecule?
Answer: 8.84 µM

Question: What about the GI50 (HOP-62 NSCLC) of the same molecule?
Answer: 4.63 µM

Question: And the TGI (HOP-62 NSCLC)?
Answer: 9.44 µM

Question: What about the GI50 (NCI-H460 lung) of the same molecule?
Answer: 1.88 µM

Question: And the TGI (NCI-H460 lung)?
Answer: 3.53 µM

Question: What about the GI50 (SW-620 colon) of the same molecule?
Answer: 1.7 µM

Question: What about the TGI (SW-620 colon) of the same molecule?
Answer: 3.31 µM

Question: What about the GI50 (MCF7 breast) of the same molecule?
Answer: 1.7 µM

Question: And the TGI (MCF7 breast)?
Answer: 3.35 µM

Question: What about the GI50 (SF-295 CNS) of the same molecule?
Answer: 2.95 µM

Question: And the TGI (SF-295 CNS)?
Answer: 7.6 µM

Question: And the GI50 (HCT-116 colon)?
Answer: 1.63 µM

Question: What about the TGI (HCT-116 colon) of the same molecule?
Answer: 3.16 µM

Question: What about the GI50 (PC-3 prostate) of the same molecule?
Answer: 2.81 µM

Question: What about the TGI (PC-3 prostate) of the same molecule?
Answer: 7.76 µM

Question: And the GI50 (MDA-MB-435)?
Answer: 1.75 µM

Question: And the TGI (MDA-MB-435)?
Answer: 3.26 µM

Question: What about the GI50 (SK-MEL-2 melanoma) of the same molecule?
Answer: 5.35 µM

Question: What about the TGI (SK-MEL-2 melanoma) of the same molecule?
Answer: 9.95 µM

Question: And the GI50 (MALME-3M melanoma)?
Answer: 1.73 µM

Question: And the TGI (MALME-3M melanoma)?
Answer: 3.23 µM

Question: And the GI50 (SNB-75 CNS)?
Answer: 4.09 µM

Question: And the TGI (SNB-75 CNS)?
Answer: 8.18 µM

Question: And the GI50 (NCI/ADR-RES ovarian)?
Answer: 2.74 µM

Question: And the TGI (NCI/ADR-RES ovarian)?
Answer: 7.88 µM

Question: And the GI50 (NCI-H522 lung)?
Answer: 1.7 µM

Question: And the TGI (NCI-H522 lung)?
Answer: 3.39 µM

Question: And the GI50 (A549 NSCLC)?
Answer: 4.25 µM

Question: What about the TGI (A549 NSCLC) of the same molecule?
Answer: 8.78 µM

Question: And the GI50 (SR leukemia)?
Answer: 1.81 µM

Question: And the TGI (SR leukemia)?
Answer: 4.6 µM

Question: And the GI50 (HCT-15 colon)?
Answer: 1.69 µM

Question: What about the TGI (HCT-15 colon) of the same molecule?
Answer: 3.4 µM

Question: And the GI50 (HL-60(TB) leukemia)?
Answer: 1.78 µM

Question: What about the TGI (HL-60(TB) leukemia) of the same molecule?
Answer: 3.74 µM

Question: What about the GI50 (NCI-H226 lung) of the same molecule?
Answer: 5.09 µM

Question: And the TGI (NCI-H226 lung)?
Answer: 10.9 µM

Question: And the GI50 (IGROV1 ovarian)?
Answer: 2.8 µM

Question: What about the TGI (IGROV1 ovarian) of the same molecule?
Answer: 7.64 µM

Question: And the GI50 (HT29 colon)?
Answer: 1.66 µM

Question: What about the TGI (HT29 colon) of the same molecule?
Answer: 3.26 µM

Question: What about the GI50 (SF-268 CNS) of the same molecule?
Answer: 2.94 µM

Question: What about the TGI (SF-268 CNS) of the same molecule?
Answer: 8.26 µM

Question: What about the GI50 (OVCAR-5 ovarian) of the same molecule?
Answer: 4.8 µM

Question: What about the TGI (OVCAR-5 ovarian) of the same molecule?
Answer: 9.34 µM

Question: What about the GI50 (CAKI-1 renal) of the same molecule?
Answer: 1.59 µM

Question: And the TGI (CAKI-1 renal)?
Answer: 3.35 µM

Question: What about the GI50 (MOLT-4 leukemia) of the same molecule?
Answer: 2.16 µM

Question: What about the TGI (MOLT-4 leukemia) of the same molecule?
Answer: 5.13 µM

Question: And the GI50 (K-562 leukemia)?
Answer: 1.79 µM

Question: What about the TGI (K-562 leukemia) of the same molecule?
Answer: 4.41 µM

Question: What about the GI50 (UO-31 renal) of the same molecule?
Answer: 1.42 µM

Question: What about the TGI (UO-31 renal) of the same molecule?
Answer: 3.05 µM

Question: What about the GI50 (OVCAR-3 ovarian) of the same molecule?
Answer: 2.58 µM

Question: What about the TGI (OVCAR-3 ovarian) of the same molecule?
Answer: 7.12 µM

Question: And the GI50 (RPMI-8226 leukemia)?
Answer: 1.87 µM

Question: And the TGI (RPMI-8226 leukemia)?
Answer: 4.33 µM

Question: What about the GI50 (A498 renal) of the same molecule?
Answer: 5.15 µM

Question: And the TGI (A498 renal)?
Answer: 9.66 µM

Question: What about the GI50 (SK-MEL-28 melanoma) of the same molecule?
Answer: 1.75 µM

Question: And the TGI (SK-MEL-28 melanoma)?
Answer: 3.2 µM

Question: What about the GI50 (ACHN renal) of the same molecule?
Answer: 2.25 µM

Question: And the TGI (ACHN renal)?
Answer: 5.2 µM

Question: And the GI50 (UACC-257 melanoma)?
Answer: 1.74 µM

Question: What about the TGI (UACC-257 melanoma) of the same molecule?
Answer: 3.4 µM

Question: What about the GI50 (U251 CNS) of the same molecule?
Answer: 1.85 µM

Question: What about the TGI (U251 CNS) of the same molecule?
Answer: 3.76 µM

Question: What about the GI50 (SF-539 CNS) of the same molecule?
Answer: 1.72 µM

Question: And the TGI (SF-539 CNS)?
Answer: 3.19 µM
